Patent US7101882B2, “Morpholin-acetamide derivatives for the treatment of inflammatory diseases” (Glaxo Group Limited, priority 2000, dated 2006)

Biological target: eosinophils
Assay: Eosinophil chemotaxis assay (assay (b))
Assay type: cell-based, human
Procedure: (b) Eosinophil Chemotaxis Assay.
Compounds were evaluated for their inhibitory effect on eosinophil chemotaxis. Eosinophils were purified from human peripheral blood by standard CD16 cell depletion using a Miltenyi cell separation column and a magnetic Super Macs magnet as previously described (Motegi & Kita, 1998; J. Immunology. 161:4340-6). Cells were re-suspended in RPMI 1640/10% FCS solution and incubated with calcein-AM (Molecular Probes) at 37° C. for 30 mins. Following incubation, the eosinophils were centrifuged at 400 g for 5 min and re-suspended in RPMI/FCS at 2.2 million/ml. Cells were then incubated in the presence of increasing concentration of compounds (1 pM to 30 μM) at 37° C. for 30 mins. For control responses cells were incubated with RPMI/FCS only. The agonist eotaxin (either a concentration response curve or for the functional inhibition curves an EC80 concentration) was added to the lower chamber of a 96 well chemotaxis plate (5 μm filter: Receptor Technologies). […] Cells remaining on top of the chemotaxis filter were removed and the number of eosinophils which had migrated were quantified by reading the plate on a fluorescent plate reader. Inhibition curves for the effect of compounds on eosinophil chemotaxis were analysed by fitting the data with a four parameter logistic equation. […]

## NS(=O)(=O)c1cccc(CC(=O)NC[C@H]2CN(Cc3ccc(Cl)c(Cl)c3)CCO2)c1 [Example 162, 2-[3-(Aminosulfonyl)phenyl]-N-{[(2S)-4-(3,4-dichlorobenzyl)morpholin-2-yl]methyl}acetamide]
  CCR-3 Eosinophil Chemotaxis Assay (fpKi): 8.2
